Laboratory results as given in ChEMBL document CHEMBL1135291, “Novel matrix metallo-proteinase (MMP-2) phosphonoboronate inhibitors” (Bioorg Med Chem Lett, 2002).

Each compound was assayed against 72 kDa type IV collagenase (Homo sapiens) (UniProt P08253) (assay: Inhibition of Matrix metalloprotease-2 at 50 uM).
Sequence of 72 kDa type IV collagenase (Homo sapiens) (P08253 110-660 limits assumed): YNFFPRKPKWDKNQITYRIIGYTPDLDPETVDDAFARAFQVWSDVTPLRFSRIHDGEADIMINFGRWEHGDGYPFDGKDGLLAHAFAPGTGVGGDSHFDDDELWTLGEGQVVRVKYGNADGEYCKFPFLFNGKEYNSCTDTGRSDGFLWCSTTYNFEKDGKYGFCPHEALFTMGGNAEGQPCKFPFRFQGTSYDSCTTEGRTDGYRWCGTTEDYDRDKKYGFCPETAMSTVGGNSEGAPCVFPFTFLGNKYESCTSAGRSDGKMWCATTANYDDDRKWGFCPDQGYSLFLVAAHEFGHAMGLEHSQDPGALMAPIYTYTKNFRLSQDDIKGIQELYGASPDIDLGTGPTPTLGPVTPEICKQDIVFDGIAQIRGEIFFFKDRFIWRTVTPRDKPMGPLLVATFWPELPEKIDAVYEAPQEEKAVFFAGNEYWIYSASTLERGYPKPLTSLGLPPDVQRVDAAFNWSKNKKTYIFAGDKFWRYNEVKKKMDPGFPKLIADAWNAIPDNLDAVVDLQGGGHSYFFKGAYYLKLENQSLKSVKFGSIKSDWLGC

Row | inhibition [%] | Structure (SMILES)
1 | 40 | CC1(C)OB(C(Cc2ccccc2)P(=O)(O)O)OC1(C)C (configuration not stated)
2 | 50 | CCCCCC(B1OC(C)(C)C(C)(C)O1)P(=O)(O)O (configuration not stated)
3 | 55 | CC1(C)OB(C(CCCCl)P(=O)(O)O)OC1(C)C (configuration not stated)
4 | 50 | CC1(C)OB(CP(=O)(O)O)OC1(C)C

Second part, the compound before the results:

Row | Structure (SMILES) | inhibition [%]
5 | O=P(O)(O)CB(O)O | 0
6 | COP(=O)(CC1OC(C)(C)C(C)(C)O1)OC | 0
7 | CC1(C)OB(/C=C/CP(=O)(O)O)OC1(C)C | 75
